Source: PMC3382171 (PLoS ONE, 2012)

Assays:
Test in all cases: biochemical
Set-up in all cases: Invitrogen SelectScreen kinase panel, percent inhibition at 1 uM, ATP at Km
Details in all cases: read-out: Invitrogen KSS %Inh at 1 µM
PRKCZ (PKC zeta) = PRKCZ (PKC zeta) (Homo sapiens, UniProt Q05513)
Method in brief: (§1)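 Commercial kinase panel screens run with ATP at the Km for each kinase. Compounds tested at 1 µM final concentration; values are % inhibition of phosphorylation relative to control.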

HCK = HCK (Homo sapiens, UniProt P08631)
Method in brief: as §1

PAK2 (PAK65) = PAK2 (PAK65) (Homo sapiens, UniProt Q13177)
Method in brief: as §1

CDK1/cyclinB = CDK1/cyclinB (Homo sapiens, UniProt P06493)
Method in brief: as §1

EGFR (ErbB1) = EGFR (ErbB1) (Homo sapiens, UniProt P00533)
Method in brief: as §1

EGFR (ErbB1) L858R = EGFR (ErbB1) L858R (Homo sapiens, UniProt P00533, L858R)
Method in brief: as §1

MAPKAPK2 = MAPKAPK2 (Homo sapiens, UniProt P49137)
Method in brief: as §1

IKBKB (IKK beta) = IKBKB (IKK beta) (Homo sapiens, UniProt O14920)
Method in brief: as §1

EEF2K = EEF2K (Homo sapiens, UniProt O00418)
Method in brief: as §1

PRKCG (PKC gamma) = PRKCG (PKC gamma) (Homo sapiens, UniProt P05129)
Method in brief: as §1

RPS6KA1 (RSK1) = RPS6KA1 (RSK1) (Homo sapiens, UniProt Q15418)
Method in brief: as §1

MARK2 = MARK2 (Homo sapiens, UniProt Q7KZI7)
Method in brief: as §1

RPS6KA3 (RSK2) = RPS6KA3 (RSK2) (Homo sapiens, UniProt P51812)
Method in brief: as §1

FLT3 = FLT3 (Homo sapiens, UniProt P36888)
Method in brief: as §1

FYN = FYN (Homo sapiens, UniProt P06241)
Method in brief: as §1

PTK2B (FAK2) = PTK2B (FAK2) (Homo sapiens, UniProt Q14289)
Method in brief: as §1

ALK = ALK (Homo sapiens, UniProt Q9UM73)
Method in brief: as §1

LYN A = target: T1, LYN A (Homo sapiens, UniProt P07948)
T1 construct: isoform A
Method in brief: as §1

SGKL (SGK3) = SGKL (SGK3) (Homo sapiens, UniProt Q96BR1)
Method in brief: as §1

AKT3 (PKB gamma) = AKT3 (PKB gamma) (Homo sapiens, UniProt Q9Y243)
Method in brief: as §1

TBK1 = TBK1 (Homo sapiens, UniProt Q9UHD2)
Method in brief: as §1

AKT1 (PKB alpha) = AKT1 (PKB alpha) (Homo sapiens, UniProt P31749)
Method in brief: as §1

Sequence of FYN (P06241 whole entry): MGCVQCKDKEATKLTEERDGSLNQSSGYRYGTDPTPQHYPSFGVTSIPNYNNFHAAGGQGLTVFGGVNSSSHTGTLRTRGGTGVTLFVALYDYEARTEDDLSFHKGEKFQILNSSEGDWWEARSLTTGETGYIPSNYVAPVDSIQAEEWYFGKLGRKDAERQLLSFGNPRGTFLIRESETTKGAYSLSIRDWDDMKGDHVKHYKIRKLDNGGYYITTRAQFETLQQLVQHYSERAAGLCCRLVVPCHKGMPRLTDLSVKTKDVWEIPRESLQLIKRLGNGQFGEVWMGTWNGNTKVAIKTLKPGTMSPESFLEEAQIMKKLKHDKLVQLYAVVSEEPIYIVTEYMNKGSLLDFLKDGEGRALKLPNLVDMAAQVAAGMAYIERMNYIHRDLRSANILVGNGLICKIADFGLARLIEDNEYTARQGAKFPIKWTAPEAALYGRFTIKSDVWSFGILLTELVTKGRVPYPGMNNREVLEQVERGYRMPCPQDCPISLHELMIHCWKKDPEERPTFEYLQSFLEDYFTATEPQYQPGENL
Sequence of SGKL (SGK3) (Q96BR1 whole entry): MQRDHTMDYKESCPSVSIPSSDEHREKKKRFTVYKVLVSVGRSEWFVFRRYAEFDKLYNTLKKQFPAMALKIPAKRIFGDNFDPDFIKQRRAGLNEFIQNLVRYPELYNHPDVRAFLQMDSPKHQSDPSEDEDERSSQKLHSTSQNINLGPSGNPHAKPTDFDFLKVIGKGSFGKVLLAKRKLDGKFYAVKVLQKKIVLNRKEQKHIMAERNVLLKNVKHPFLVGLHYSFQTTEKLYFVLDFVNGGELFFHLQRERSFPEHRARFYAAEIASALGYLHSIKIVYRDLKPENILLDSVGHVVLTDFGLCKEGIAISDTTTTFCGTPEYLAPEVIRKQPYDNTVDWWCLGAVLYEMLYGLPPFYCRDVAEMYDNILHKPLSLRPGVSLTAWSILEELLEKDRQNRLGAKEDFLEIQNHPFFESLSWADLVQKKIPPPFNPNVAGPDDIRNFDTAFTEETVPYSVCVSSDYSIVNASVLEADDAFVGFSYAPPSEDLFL
Sequence of CDK1/cyclinB (P06493 whole entry): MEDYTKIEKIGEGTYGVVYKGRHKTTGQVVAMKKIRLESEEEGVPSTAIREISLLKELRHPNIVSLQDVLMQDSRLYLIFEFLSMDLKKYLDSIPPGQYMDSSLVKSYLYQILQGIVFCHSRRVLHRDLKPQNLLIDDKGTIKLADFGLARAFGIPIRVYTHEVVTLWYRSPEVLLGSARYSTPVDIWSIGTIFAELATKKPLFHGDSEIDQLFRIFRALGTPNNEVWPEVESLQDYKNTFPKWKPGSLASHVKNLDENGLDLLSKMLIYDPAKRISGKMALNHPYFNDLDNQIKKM
Sequence of CDK1/cyclinB (P14635 whole entry partner): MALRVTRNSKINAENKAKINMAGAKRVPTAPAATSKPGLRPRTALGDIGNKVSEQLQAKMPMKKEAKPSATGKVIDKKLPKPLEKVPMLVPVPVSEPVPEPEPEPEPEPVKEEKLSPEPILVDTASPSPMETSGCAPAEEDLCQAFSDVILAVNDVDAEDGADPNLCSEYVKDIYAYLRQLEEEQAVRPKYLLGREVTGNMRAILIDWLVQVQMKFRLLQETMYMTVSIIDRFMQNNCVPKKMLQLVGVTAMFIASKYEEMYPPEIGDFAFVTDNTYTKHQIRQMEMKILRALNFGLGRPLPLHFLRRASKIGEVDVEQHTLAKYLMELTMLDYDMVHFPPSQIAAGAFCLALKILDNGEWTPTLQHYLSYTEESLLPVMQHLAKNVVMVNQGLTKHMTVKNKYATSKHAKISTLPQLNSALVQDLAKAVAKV
Sequence of PRKCZ (PKC zeta) (Q05513 whole entry): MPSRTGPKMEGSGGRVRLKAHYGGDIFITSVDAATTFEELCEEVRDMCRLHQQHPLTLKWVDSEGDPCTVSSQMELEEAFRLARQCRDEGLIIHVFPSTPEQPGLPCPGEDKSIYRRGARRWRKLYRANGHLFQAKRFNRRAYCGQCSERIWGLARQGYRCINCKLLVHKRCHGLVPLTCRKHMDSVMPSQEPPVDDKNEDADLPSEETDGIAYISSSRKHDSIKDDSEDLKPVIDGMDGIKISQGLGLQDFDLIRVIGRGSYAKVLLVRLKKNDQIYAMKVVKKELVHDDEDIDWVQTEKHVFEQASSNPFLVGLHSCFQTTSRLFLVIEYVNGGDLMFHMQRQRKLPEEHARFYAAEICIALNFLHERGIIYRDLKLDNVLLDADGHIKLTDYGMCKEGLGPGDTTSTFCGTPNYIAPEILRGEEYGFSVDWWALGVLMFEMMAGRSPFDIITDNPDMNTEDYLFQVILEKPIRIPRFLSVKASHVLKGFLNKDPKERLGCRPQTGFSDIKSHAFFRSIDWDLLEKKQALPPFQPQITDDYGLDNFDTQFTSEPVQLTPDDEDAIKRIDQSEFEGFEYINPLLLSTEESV
Sequence of EEF2K (O00418 whole entry): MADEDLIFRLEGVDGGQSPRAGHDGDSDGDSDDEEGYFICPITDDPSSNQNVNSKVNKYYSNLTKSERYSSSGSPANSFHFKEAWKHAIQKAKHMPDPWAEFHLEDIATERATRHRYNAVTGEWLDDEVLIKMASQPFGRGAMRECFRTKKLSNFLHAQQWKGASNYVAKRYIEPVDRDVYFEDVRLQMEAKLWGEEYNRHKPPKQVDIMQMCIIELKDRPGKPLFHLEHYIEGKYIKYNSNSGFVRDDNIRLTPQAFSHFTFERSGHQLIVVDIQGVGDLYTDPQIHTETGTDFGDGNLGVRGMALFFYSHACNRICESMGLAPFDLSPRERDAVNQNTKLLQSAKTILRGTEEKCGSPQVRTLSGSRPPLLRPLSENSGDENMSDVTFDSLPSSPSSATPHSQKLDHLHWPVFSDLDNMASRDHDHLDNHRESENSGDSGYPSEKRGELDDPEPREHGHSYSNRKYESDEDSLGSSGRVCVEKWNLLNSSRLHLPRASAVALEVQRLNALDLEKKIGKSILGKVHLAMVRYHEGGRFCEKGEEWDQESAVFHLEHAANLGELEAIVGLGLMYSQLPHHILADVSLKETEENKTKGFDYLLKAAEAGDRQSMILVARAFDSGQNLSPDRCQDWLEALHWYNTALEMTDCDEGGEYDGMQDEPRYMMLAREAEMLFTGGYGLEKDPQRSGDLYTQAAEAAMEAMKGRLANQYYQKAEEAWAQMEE
Sequence of FLT3 (P36888 whole entry): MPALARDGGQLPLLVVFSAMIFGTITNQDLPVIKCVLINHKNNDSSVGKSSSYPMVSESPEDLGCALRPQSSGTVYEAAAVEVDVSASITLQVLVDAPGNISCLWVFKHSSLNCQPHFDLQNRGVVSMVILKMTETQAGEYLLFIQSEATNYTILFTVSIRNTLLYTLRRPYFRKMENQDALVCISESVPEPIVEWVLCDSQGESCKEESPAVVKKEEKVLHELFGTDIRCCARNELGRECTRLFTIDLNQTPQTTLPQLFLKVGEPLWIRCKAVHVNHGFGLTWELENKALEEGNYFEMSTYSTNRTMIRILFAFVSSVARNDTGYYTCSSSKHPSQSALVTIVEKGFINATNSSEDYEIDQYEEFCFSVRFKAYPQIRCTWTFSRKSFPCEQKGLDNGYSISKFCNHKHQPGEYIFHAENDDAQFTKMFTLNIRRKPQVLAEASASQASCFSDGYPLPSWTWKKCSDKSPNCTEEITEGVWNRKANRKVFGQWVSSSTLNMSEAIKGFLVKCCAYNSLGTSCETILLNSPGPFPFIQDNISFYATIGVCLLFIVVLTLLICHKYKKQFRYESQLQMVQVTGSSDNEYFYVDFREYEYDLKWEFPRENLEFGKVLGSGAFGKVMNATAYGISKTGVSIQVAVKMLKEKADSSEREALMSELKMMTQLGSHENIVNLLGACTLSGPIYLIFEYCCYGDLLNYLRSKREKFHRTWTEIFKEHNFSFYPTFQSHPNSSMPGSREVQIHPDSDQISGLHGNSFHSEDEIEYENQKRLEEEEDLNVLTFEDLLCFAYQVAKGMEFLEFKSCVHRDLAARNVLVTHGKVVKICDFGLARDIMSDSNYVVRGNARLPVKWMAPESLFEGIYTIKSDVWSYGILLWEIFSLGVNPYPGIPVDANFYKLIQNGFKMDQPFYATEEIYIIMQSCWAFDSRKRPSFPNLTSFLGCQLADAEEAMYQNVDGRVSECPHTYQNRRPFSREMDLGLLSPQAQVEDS
T1 sequence (P07948 whole entry, canonical isoform): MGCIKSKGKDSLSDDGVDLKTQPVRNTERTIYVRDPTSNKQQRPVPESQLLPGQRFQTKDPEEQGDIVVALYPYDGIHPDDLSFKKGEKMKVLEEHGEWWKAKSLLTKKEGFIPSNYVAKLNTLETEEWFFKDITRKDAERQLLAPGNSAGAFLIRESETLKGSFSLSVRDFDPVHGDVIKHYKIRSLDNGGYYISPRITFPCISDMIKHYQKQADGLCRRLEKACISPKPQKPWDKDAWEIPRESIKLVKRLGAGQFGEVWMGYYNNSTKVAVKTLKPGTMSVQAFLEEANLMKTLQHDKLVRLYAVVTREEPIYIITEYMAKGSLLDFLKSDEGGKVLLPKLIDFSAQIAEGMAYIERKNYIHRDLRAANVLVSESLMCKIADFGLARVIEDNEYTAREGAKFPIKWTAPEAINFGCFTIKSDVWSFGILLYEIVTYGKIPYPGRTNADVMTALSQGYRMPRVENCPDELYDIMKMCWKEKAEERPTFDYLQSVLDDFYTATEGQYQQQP
Sequence of MAPKAPK2 (P49137 whole entry): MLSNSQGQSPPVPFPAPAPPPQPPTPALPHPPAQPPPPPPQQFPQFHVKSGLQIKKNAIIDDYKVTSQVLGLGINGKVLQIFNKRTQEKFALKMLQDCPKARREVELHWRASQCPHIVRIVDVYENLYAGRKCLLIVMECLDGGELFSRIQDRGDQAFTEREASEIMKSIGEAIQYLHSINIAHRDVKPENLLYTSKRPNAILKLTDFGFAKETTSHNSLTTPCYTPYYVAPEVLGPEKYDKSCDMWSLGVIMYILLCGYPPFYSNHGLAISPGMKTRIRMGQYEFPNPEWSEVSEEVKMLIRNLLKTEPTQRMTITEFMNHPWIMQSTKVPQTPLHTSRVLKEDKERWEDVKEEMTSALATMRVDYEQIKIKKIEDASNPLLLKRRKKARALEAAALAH

For `N#CCCNc1nccc(-c2cn(CC(F)F)nc2-c2cnc3[nH]ccc3c2)n1` [RAFi, PF-04880594], the inhibition at 1 µM (PRKCZ (PKC zeta)) was -7%, the inhibition at 1 µM (HCK) was 5% and the inhibition at 1 µM (PAK2 (PAK65)) was 3%. It also gave an inhibition at 1 µM (CDK1/cyclinB) of -1%, an inhibition at 1 µM (EGFR (ErbB1)) of 5% and an inhibition at 1 µM (EGFR (ErbB1) L858R) of 6%. It also gave an inhibition at 1 µM (MAPKAPK2) of 3%, an inhibition at 1 µM (IKBKB (IKK beta)) of 0% and an inhibition at 1 µM (EEF2K) of 14%. It also gave an inhibition at 1 µM (PRKCG (PKC gamma)) of -15%, an inhibition at 1 µM (RPS6KA1 (RSK1)) of 6% and an inhibition at 1 µM (MARK2) of 9%. For the same compound, the inhibition at 1 µM (RPS6KA3 (RSK2)) was -9%, the inhibition at 1 µM (FLT3) was 61% and the inhibition at 1 µM (FYN) was -4%. It also gave an inhibition at 1 µM (PTK2B (FAK2)) of 6%, an inhibition at 1 µM (ALK) of 23% and an inhibition at 1 µM (LYN A) of 2%. The inhibition at 1 µM (SGKL (SGK3)) was -1%, the inhibition at 1 µM (AKT3 (PKB gamma)) was 7% and the inhibition at 1 µM (TBK1) was -7%. For the same compound, the inhibition at 1 µM (AKT1 (PKB alpha)) was 5%.
